Results on 3 molecules are retold here after US20250025550A1, “ADJUVANT COMPOUNDS AND FORMULATIONS” (ADJUVANCE TECHNOLOGIES, INC., priority 2021, published 2025).

One series concerns CD-i mice. The series is described as follows: TQL-1055 HP-β-CD dose ranging study: weight loss and survival. The settings on record: for Deaths (D 7) / Deaths (D 21): CD-1 mice, I.M.; for Deaths (D 7): post dose 1; for Deaths (D 21): post dose 2 (day 14).
The subject of series [1] is mouse strains (C57BL/6J, BALB/cJ, CD-i). The series is described as follows: Tolerability (mortality) of soluble TQL-1055 formulations across three mouse strains. The format is in vivo. How it is done:
The tolerability of soluble TQL-1055 formulations, including TQL-1055 FA (free acid) HP-β-CD and TQL-1055 ISKS (in situ potassium salt) HP-β-CD formulations, administered over a range of doses was examined across three mouse strains (C57BL/6J, BALB/cJ, CD-i). The following experimental groups were used. I.M. administration was performed.
The mortality rate 7 days after injection was observed.
A Logrank (Mantel-Cox) test was performed to assess survival distributions of the foregoing groups.

For series [2], the system named is cancer patients; well (non-cancer) adult and child recipients. The settings on record: cited from earlier work.
Setting [3] is: no antigen, HPβCD dose equivalent to group 4.
Setting [4] is: with 0.1 μg PR8 HA, HPβCD dose equivalent to group 4.

`CC1O[C@@H](OC2C(O)[C@@H](NC(=O)CCCCCCCCCCC(=O)O)C(CO)O[C@H]2OC(=O)[C@]23CCC(C)(C)CC2C2=CCC4C5(C)CC[C@H](O)[C@](C)(C=O)[C@@H]5CC[C@]4(C)[C@]2(C)CC3O)C(O)C(O)[C@H]1O[C@@H]1OC[C@@H](O)C(O)C1O` (stereo partly drawn) [TQL1055 FA]: the “Deaths (D 7)” value is given as 0/10 in the series on CD-i mice (no antigen, 50 μg); 0/10 in the series on CD-i mice (no antigen, 100 μg); 0/10 in the series on CD-i mice (no antigen, 200 μg); 0/10 in the series on CD-i mice (with 0.1 μg PR8 HA, 50 μg); 0/10 with CD-i mice (with 0.1 μg PR8 HA, 100 μg); 0/10 in the series on CD-i mice (with 0.1 μg PR8 HA, 198.68 μg). The “Deaths (D 21)” value is recorded as 0/10 in the series with CD-i mice (no antigen, 50 μg); 0/10 with CD-i mice (no antigen, 100 μg); 0/10 with CD-i mice (no antigen, 200 μg); 0/10 in the series on CD-i mice (with 0.1 μg PR8 HA, 50 μg); 0/10 in the series with CD-i mice (with 0.1 μg PR8 HA, 100 μg); 0/10 in the series with CD-i mice (with 0.1 μg PR8 HA, 198.68 μg).

As for QS-21, the Deaths in series [1] (BALB/cJ mice, 20 μg I.M., 7 days after injection) is recorded as 0/10; in series [1] (BALB/cJ mice, 40 μg I.M., 7 days after injection) it was 0/10; in series [1] (BALB/cJ mice, 60 μg I.M., 7 days after injection), 0/10; in series [1] (BALB/cJ mice, 80 μg I.M., 7 days after injection) it was 0/10; in series [1] (BALB/cJ mice, 100 μg I.M., 7 days after injection) it was 0/10; in series [1] (C57BL/6J mice, 20 μg I.M., 7 days after injection), 0/10. The Deaths in series [1] (C57BL/6J mice, 40 μg I.M., 7 days after injection) was 2/10; in series [1] (C57BL/6J mice, 60 μg I.M., 7 days after injection), 0/10; in series [1] (C57BL/6J mice, 80 μg I.M., 7 days after injection) it was 5/10; in series [1] (C57BL/6J mice, 100 μg I.M., 7 days after injection), 10/10; in series [1] (CD-1 mice, 20 μg I.M., 7 days after injection) it was 0/10; in series [1] (CD-1 mice, 40 μg I.M., 7 days after injection) it was 0/10. Also, the Deaths was 0/10 in series [1] (CD-1 mice, 60 μg I.M., 7 days after injection); 0/10 in series [1] (CD-1 mice, 80 μg I.M., 7 days after injection); 0/10 in series [1] (CD-1 mice, 100 μg I.M., 7 days after injection). For the same molecule, the “Role of mouse strain in tolerability” value in series [1] (C57BL/6J, BALB/cJ, CD-1 compared) is “C57BL/6 mice appear to be more sensitive”. Also, the “Mortality” value in series [1] (all three mouse strains, 20-100 μg I.M., 7 days after injection) is “at least some mice in the other groups (including QS-21) died”. The tolerated dose in series [2] (cancer patients, above it significant local and systemic side effects arise) was 100 to 150 µg. Also, the “highest practical tolerable dose” value in series [2] (well (non-cancer) adult and child recipients) is 25 to 50 µg. Moreover, the “Deaths (D 7)” value is reported as 0/10 in the series with CD-i mice (with 0.1 μg PR8 HA, 25 μg); 0/10 with CD-i mice (with 0.1 μg PR8 HA, 50 μg); 2/10 with CD-i mice (with 0.1 μg PR8 HA, 100 μg). For the same molecule, the “Deaths (D 21)” value is 0/10 in the series with CD-i mice (with 0.1 μg PR8 HA, 25 μg); 0/10 with CD-i mice (with 0.1 μg PR8 HA, 50 μg); 0/8 with CD-i mice (with 0.1 μg PR8 HA, 100 μg).

In the case of “2-hydroxypropyl beta-cyclodextrin [HPβCD alone]”, the “Deaths (D 7)” value in the series with CD-i mice (setting [3]) and in the series on CD-i mice (setting [4]) was 0/10 in each case. The “Deaths (D 21)” value in the series with CD-i mice (setting [3]) and in the series with CD-i mice (setting [4]) was 0/10 in each case. The “Mortality (follow-on studies, text)” value with CD-i mice (mice, TQL-1055 without HP-β-CD, or HP-β-CD without TQL-1055, any dose tested) is “did not result in mortality”.
